The values that follow are results of earlier work, collected in US20060275372A1 (Elan Pharma International Limited, priority 2005, published 2006).

Structures can show the parent of a compound that is named as a salt.

The conditions of the series: fasting state as compared to the fed state.

On to `Cc1ccc(NC(=O)c2ccc(CN3CCN(C)CC3)cc2)cc1Nc1nccc(-c2cccnc2)n1` [Imatinib mesylate, 4-[(4-Methyl-1-piperazinyl)methyl]-N-[4-methyl-3-[[4-(3-pyridinyl)-2-pyrimidinyl]amino]-phenyl]benzamide methanesulfonate], for which the bioavailability result is listed as “limited bioavailability”.
